# Data taken from US20170291905A1, “ARGININE […] INHIBITORS AND USES THEREOF” (Epizyme, Inc., priority 2014, published 2017).
# Structures can show the parent of a compound that is named as a salt.
# Biological target: T1, PRMT1 (Homo sapiens, UniProt Q99873)
# T1 construct: host or cells: RKO cells
# Experiment: RKO methylation assay, In Cell Western (ICW) for mono-methyl arginine and DNA content
# Format: cell-based
# Settings: RKO cells, 72 hours, mono-methyl arginine signal normalised to DRAQ5, percent activation
# Excerpt: RKO Methylation Assay RKO adherent cells were purchased from ATCC (American Type Culture Collection), Manassas, Va., USA. DMEM/Glutamax medium, penicillin-streptomycin, heat inactivated fetal bovine serum, 0.05% trypsin and D-PBS were purchased from Life Technologies, Grand Island, N.Y., USA. Odyssey blocking buffer, 800CW goat anti-rabbit IgG (H+L) antibody, and Licor Odyssey infrared scanner were purchased from Licor Biosciences, Lincoln, Nebr., USA. Mono-methyl arginine antibody was purchased from Cell Signaling Technology, Danvers, Mass., USA. Methanol was purchased from VWR, Franklin, Mass., USA. 10% Tween 20 was purchased from KPL, Inc., Gaithersburg, Md., USA. DRAQ5 was purchased from Biostatus Limited, Leicestershire, UK. RKO adherent cells were maintained in growth medium (DMEM/Glutamax medium supplemented with 10% v/v heat inactivated fetal bovine serum and 100 units/mL penicillin-streptomycin) and cultured at 37° C. under 5% CO2. Cell Treatment, in Cell Western (ICW) for Detection of Mono-Methyl Arginine and DNA Content. RKO cells were seeded in assay medium at a concentration of 20,000 cells per mL to a poly-D-lysine coated 384 well culture plate (BD Biosciences 356697) with 50 μL per well. Compound (100 nL) from a 96-well source plate was added directly to 384 well cell plate. Plates were incubated at 37° C., 5% CO2 for 72 hours. After three days of incubation, plates were brought to room temperature outside of the incubator for ten minutes and blotted on paper towels to remove cell media. 50 μL of ice cold 100% methanol was added directly to each well and incubated for 30 min at room temperature. After 30 min, plates were transferred to a Biotek EL406 plate washer and washed 2 times with 100 μL per well of wash buffer (1×PBS). Next 60 μL per well of Odyssey blocking buffer (Odyssey Buffer with 0.1% Tween 20 (v/v)) were added to each plate and incubated 1 hour at room temperature. Blocking buffer was removed and 20 μL per well of primary antibody was added (mono-methyl arginine diluted 1:200 in Odyssey buffer with 0.1% Tween 20 (v/v)) and plates were incubated overnight (16 hours) at 4° C. Plates were washed 5 times with 100 μL per well of wash buffer. Next 20 μL per well of secondary antibody was added (1:200 800CW goat anti-rabbit IgG (H+L) antibody, 1:1000 DRAQ5 (Biostatus limited) in Odyssey buffer with 0.1% Tween 20 (v/v)) and incubated for 1 hour at room temperature. The plates were washed 5 times with 100 μL per well wash buffer then 2 times with 100 μL per well of water. Plates were allowed to dry at room temperature then imaged on the Licor Odyssey machine which measures integrated intensity at 700 nm and 800 nm wavelengths. Both 700 and 800 channels were scanned. […] Each plate included fourteen control wells of DMSO only treatment (minimum activation) as well as fourteen control wells for maximum activation treated with 20 μM of a reference compound. The average of the ratio values for each control type was calculated and used to determine the percent activation for each test well in the plate. Reference compound was serially diluted three-fold in DMSO for a total of nine test concentrations, beginning at 20 μM. Percent activation was determined and EC30 curves were generated using triplicate wells per concentration of compound.
# T1 sequence (Q99873 whole entry): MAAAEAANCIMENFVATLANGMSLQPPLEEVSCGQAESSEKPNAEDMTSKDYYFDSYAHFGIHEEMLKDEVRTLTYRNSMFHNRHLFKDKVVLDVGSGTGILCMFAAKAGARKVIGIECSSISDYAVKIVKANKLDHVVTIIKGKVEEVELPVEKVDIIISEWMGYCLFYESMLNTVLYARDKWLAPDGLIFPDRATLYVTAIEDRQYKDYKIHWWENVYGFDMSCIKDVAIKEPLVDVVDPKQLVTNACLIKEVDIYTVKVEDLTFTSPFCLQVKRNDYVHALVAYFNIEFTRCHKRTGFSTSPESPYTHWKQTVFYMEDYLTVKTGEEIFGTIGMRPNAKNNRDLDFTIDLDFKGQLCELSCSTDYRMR
row,Structure (SMILES),PRMT1 RGG ICW EC30 [nM]
1,"CNCCN(C)Cc1c[nH]nc1C1CCC(C)(C)[C@H](CO)C1 (stereo partly drawn) [compound 32, [(1R)-2,2-dimethyl-5-[4-({methyl[2-(methylamino)ethyl]amino}methyl)-1H-pyrazol-3-yl]cyclohexyl]methanol]",517.9
2,CN(CCN)Cc1c[nH]nc1[C@H]1CC[C@@]2(CC1)CC(C)(C)CO2 [compound 105],12.12
3,CNCCN(C)Cc1sc(C)nc1[C@H]1CC[C@@]2(CC1)CC(C)(C)CO2 [compound 78],29.59
4,CNCCN(C)Cc1c[nH]nc1[C@H]1CC[C@]2(CCN(CCC(C)C)C2=O)CC1 [compound 10],2001
5,"CNCCN(C)Cc1c[nH]nc1C1CCC(C)(C)[C@H](OCC(C)C)C1 (stereo partly drawn) [compound 20, ({3-[(3R)-4,4-dimethyl-3-(2-methylpropoxy)cyclohexyl]-1H-pyrazol-4-yl}methyl)(methyl)[2-(methylamino)ethyl]amine]",204.3
6,"CNCCN(C)Cc1c[nH]nc1C1CCC2(CCC(OC)CC2)CC1 (stereo not drawn) [compound 9, N1-((3-(9-methoxyspiro[5.5]undecan-3-yl)-1H-pyrazol-4-yl)methyl)-N1,N2-dimethylethane-1,2-diamine]",12.45
7,"CC[C@]12CC[C@](CC)(C[C@H](c3n[nH]cc3CN(C)CCNC)C1)O2 [compound 37, N1-((3-((1R,3r,5S)-1,5-diethyl-8-oxabicyclo[3.2.1]octan-3-yl)-1H-pyrazol-4-yl)methyl)-N1,N2-dimethylethane-1,2-diamine]",245.5
8,CCOCC1(COCC)CCC(c2nn(C)cc2CN(C)CCNC)CC1 [compound 122],22.11
9,"CCC1CC(c2n[nH]cc2CN(C)CCNC)CC(C(=O)NCCOC)C1(C)C (stereo not drawn) [compound 21, 3-ethyl-N-(2-methoxyethyl)-2,2-dimethyl-5-[4-([methyl[2-(methylamino)ethyl]amino]methyl)-1H-pyrazol-3-yl]cyclohexane-1-carboxamide dihydrochloride]",>5000
10,"CNCCN(C)Cc1c[nH]nc1[C@H]1CC[C@]2(CCCOC2)CC1 [compound 4, N1-((3-((6s,9s)-2-oxaspiro[5.5]undecan-9-yl)-1H-pyrazol-4-yl)methyl)-N1,N2-dimethylethane-1,2-diamine]",18.34
11,"CCC1(CC)CC2(CCC(c3n[nH]cc3CN(C)CCNC)CC2)N(C)C1=O (stereo not drawn) [compound 22, 3,3-diethyl-1-methyl-8-(4-((methyl(2-(methylamino)ethyl)amino)methyl)-1H-pyrazol-3-yl)-1-azaspiro[4.5]decan-2-one]",1835
12,"CCCOCC1(COCCC)CCC(c2n[nH]cc2CN(C)CCNC)CC1 [compound 36, N^1-((3-(4,4-bis(propoxymethyl)cyclohexyl)-1H-pyrazol-4-yl)methyl)-N^1,N^2-dimethylethane-1,2-diamine]",66.17
13,CNCCN(C)Cc1nn[nH]c1[C@H]1CC[C@@]2(CC1)CC(C)(C)CO2 [compound 67],33.9
14,CCOCC1(COCC)CCC(c2nn(C)cc2CN(C)CCN)CC1 [compound 124],55.87

# Further lines, results first:
row,PRMT1 RGG ICW EC30 [nM],Structure (SMILES)
1,321.2,"CNCCN(C)Cc1ccnn1[C@H]1CC[C@]2(CC1)CC(C)(C)CO2 [compound 50, N1-((1-((5r,8r)-3,3-dimethyl-1-oxaspiro[4.5]decan-8-yl)-1H-pyrazol-5-yl)methyl)-N1,N2-dimethylethane-1,2-diamine]"
2,330.1,"CNCCN(C)Cc1c[nH]nc1C1CCC(C)(C)[C@H](COCCOC)C1 (stereo partly drawn) [compound 35, {2-[({3-[(3R)-3-[(2-methoxyethoxy)methyl]-4,4-dimethylcyclohexyl]-1H-pyrazol-4-yl}methyl)(methyl)amino]ethyl}(methyl)amine]"
3,216.4,"CNCCN(C)Cc1c[nH]nc1[C@@H]1CC[C@H](OCCCOC)C2(CCCC2)C1 (racemic) [compound 27, N1-((3-((7R,10S)-10-(3-methoxypropoxy)spiro[4.5]decan-7-yl)-1H-pyrazol-4-yl)methyl)-N1,N2-dimethylethane-1,2-diamine]"
4,83.34,CNCCN(C)Cc1c(C)[nH]nc1[C@H]1CC[C@]2(CC1)CC(C)(C)CO2 [compound 58]
5,>5000,CNCCN(C)Cc1c[nH]nc1C1C[C@@H](C(=O)N(C)CC(C)C)C(C)(C)[C@H](C(=O)N(C)CC(C)C)C1 (stereo partly drawn) [compound 12]
6,>5000,CNCCN(C)Cc1c[nH]nc1C1CC(COCC2CC2)CC(COCC2CC2)C1 (stereo not drawn) [compound 2]
7,863.2,CNCCN(C)Cc1nocc1[C@H]1CC[C@@]2(CC1)CC(C)(C)CO2 [compound 117]
8,114.7,CNCCN(C)Cc1c[nH]nc1[C@H]1CC[C@@]2(CCCCO2)CC1 [compound 3]
9,597.4,CNCCN(C)Cc1nn(C)cc1[C@H]1CC[C@]2(CC1)CC(C)(C)CO2 [compound 103]
10,17.8,CCOCC1(COCC)CCC(c2n[nH]cc2CN(C)CCN)CC1 [compound 123]
11,45.27,CN(CCN)Cc1c[nH]nc1[C@H]1CC[C@]2(CC1)CC(C)(C)CO2 [compound 106]
12,949.3,CNCCN(C)Cc1c[nH]nc1C1CCC(COCC(C)C)(COCC(C)C)CC1 [compound 6]
13,54.69,CNCCN(C)Cc1scnc1[C@H]1CC[C@]2(CC1)CC(C)(C)CO2 [compound 84]
14,443.6,CNCCN(C)Cc1nn(C)nc1C1CCC2(CC1)CC(C)(C)CO2 (stereo not drawn) [compound 86]
15,119,CNCCN(C)Cc1nn(C)nc1[C@H]1CC[C@@]2(CC1)CC(C)(C)CO2 [compound 64]
16,760.4,CNCCN(C)Cc1nn[nH]c1[C@H]1CC[C@]2(CC1)CC(C)(C)CO2 [compound 89]
17,75.86,CNCCN(C)Cc1sc(C)nc1[C@H]1CC[C@]2(CC1)CC(C)(C)CO2 [compound 100]
18,>5000,"CC[C@]12CC[C@](CC)(C[C@@H](c3n[nH]cc3CN(C)CCNC)C1)O2 [compound 38, N1-((3-((1R,3s,5S)-1,5-diethyl-8-oxabicyclo[3.2.1]octan-3-yl)-1H-pyrazol-4-yl)methyl)-N1,N2-dimethylethane-1,2-diamine]"
19,389.4,CNCCN(C)Cc1cncn1[C@H]1CC[C@@]2(CC1)CC(C)(C)CO2 [compound 76]
